Measurements as given in patent US20250162995A1, “PHENTOLAMINE MESYLATE AND THERAPEUTIC USES THEREOF” (Opus Genetics, Inc., priority 2023, published 2025).
Counter-ions that a name gives are not always drawn.

assay: XRPD analysis of the solid form after further drying (form stability); format: physicochemical; conditions: further dried at 0.24 bar and 25° C. for 16 hours
Procedure: Unless otherwise noted, XRPD data was collected using a PANanalytical EMPYREAN vs. 8.2 20201404 diffractometer with a Cu-Kα radiation (λ=1.541874 Å) source operating at 45 kV and 40 mA in transmission theta-theta configuration. Samples were scanned from 2° to 40° 2-theta with a step size of 0.013° 2-theta and a time per step of 78.795 sec. Data collection was performed with DATA COLLECTOR vs. 7.1 and processed with Data Viewer vs. 2.1 and Profex 5.2.4 software.
The phentolamine mesylate obtained according to this Example 4 was further dried at 0.24 bar and 25° C. for 16 hours.
The phentolamine mesylate obtained according to this Example 6 was further dried at 25° C. at 0.24 bar for 16 hours.
The phentolamine mesylate obtained according to this Example 7 was further dried at 0.24 bars at 25° C. for 16 hours.
The phentolamine mesylate obtained according to this Example 11 was further dried at 25° C. and 0.24 bar for 16 hours.
The phentolamine mesylate obtained according to this Example 12 was further dried at 25° C. and 0.24 bar for 16 hours.

Structure (SMILES)	solid form found by XRPD analysis of the further dried material
Cc1ccc(N(CC2=NCCN2)c2cccc(O)c2)cc1 [Example 11, phentolamine mesylate]	converted to the phentolamine mesylate obtained according to Example 1
Cc1ccc(N(CC2=NCCN2)c2cccc(O)c2)cc1 [Example 7, phentolamine mesylate]	converted to the phentolamine mesylate obtained according to Example 1
Cc1ccc(N(CC2=NCCN2)c2cccc(O)c2)cc1 [Example 12, phentolamine mesylate]	converted to the phentolamine mesylate obtained according to Example 1
Cc1ccc(N(CC2=NCCN2)c2cccc(O)c2)cc1 [Example 4, phentolamine mesylate]	converted to a mixture of the phentolamine mesylate having XRPD peaks of Reference A and the phentolamine mesylate obtained according to Example 1
Cc1ccc(N(CC2=NCCN2)c2cccc(O)c2)cc1 [Example 6, phentolamine mesylate]	converted to the phentolamine mesylate obtained according to Example 1
